Source: patent US12458608B2 (NACUITY PHARMACEUTICALS, INC., priority 2019, dated 2025)
“Also recorded” adds a separate entry of the source.

How the values were obtained:
[1] = test system: Reconstructed human epithelium (RHE) with melanocytes (MelanoDerm); test: Reconstructed human epithelium (RHE) model to assess decrease of pigmentation in skin (photographs, melanin extraction); assay type: cell-based; details: for RHE pigmentation: MelanoDerm RHE cultured 14 days, basolateral treatment every other day, NACA 10 mM, diNACA 10 mM, 2% GSSG, vs relative day untreated control
Procedure: Reconstructed human epithelium (RHE) model to assess the ability of NPI-001 and NPI2 to decrease pigmentation in skin:
Reconstructed human epithelium (RHE) with melanocytes were obtained from MatTek (MelanoDerm™ cat #MEL-300B). RHE were cultured for 14 days with reapplication of media with basolateral treatment every other day. Day 0, Day 7 and Day 14 RHE were photographed and frozen for melanin extraction.
After harvest of RHE on Day 14, cultures were submerged for 30 min in 1% sodium bicarbonate and transferred to Eppendorf tubes with 500 μl Solvable™ reagent for overnight incubation at 60° C. A synthetic melanin standard curve was made in Solvable™ reagent from 0.5-0.0039 mg/ml in half dilutions. 200 μl of extracted melanin was transferred to a 96 well plate and read at 490 nm for quantification.

[2] = test system: Light melanin human skin explant; test: Human skin explants exposed to UVA radiation, GSSG/thiol analysed by LCMS; assay type: cell-based; details: for Levels of thiol production in human skin exposed to UVA-induced oxidative skin damage: FIG. 3; for Dermal GSSG / levels of GSSG production: topical 100 mM in 10% DMSO/water 30 min prior to UVA (24 J/cm2), tissue harvested 24 hours after UVA, single donor, n=6
Procedure: Effects of NPI-001 (NACA 10 mM) and diNACA (10 mM) on human skin explants upon radiation (UVA) exposure.
Light melanin human skin explant (single donor; n=6) in transwells were exposed to UVA radiation (24 J/cm2) with and without topical application of the NPI-001 and diNACA at a final concentration of 100 mM (NPI-001 16.2 mg/ml; diNACA 32.2 mg/ml) dissolved or suspended in 10% DMSO/water and applied at ˜18 μl/cm2(˜6 μl/0.33 cm2) 30 min prior to UVA exposure (24 J/cm2 exposure). 24 hours following UVA exposure tissue was harvested, cut in half and heat separated into epidermal and dermal layers; weighed; immediate submersion of the dermal and epidermal layers into a derivatization solution, analyzed by LCMS.

[3] = target: glutamate cysteine ligase (GCL, EC 6.3.2.2); details: nonallosteric competitive inhibition; cited from earlier work
[4] = cited from earlier work

For `CC(=O)N[C@@H](CSSC[C@H](NC(C)=O)C(N)=O)C(N)=O` [diNACA, (2R,2R′)-3,3′-disulfanediyl bis(2-acetamidopropanamide)], the RHE pigmentation [1] was “decreased; also recorded: significantly inhibited”, the RHE pigmentation ([1]; listed as NPI2) was “decreased” and the “Melanin extracted from RHE” value ([1]; after 0, 7 and 14 days with treatment, read at 490 nm, vs untreated control at relative day of harvest) was “decreased”. The “Levels of thiol production in human skin exposed to UVA-induced oxidative skin damage” value [2] was “increased” and the “Dermal GSSG / levels of GSSG production” value [2] was “increased; also recorded: statistically significant increases”.

For `N[C@@H](CCC(=O)N[C@@H](CS)C(=O)NCC(=O)O)C(=O)O` [GSH, c-L-glutamyl-L-cysteinyl-glycine], the Ki [3] is given as 2.3 mM.

For `CC(=O)N[C@@H](CS)C(N)=O`, the “Levels of thiol production in human skin exposed to UVA-induced oxidative skin damage” value [2] was “increased” and the “Dermal GSSG / levels of GSSG production” value [2] was “increased; also recorded: statistically significant increases”.

For `CC(=O)N[C@@H](CS)C(=O)O` [NAC, N-acetylcysteine], the “NAC detectable after administration” value ([4]; 10-12 hours after administration) is listed as “no NAC is detectable”, the Plasma half-life ([4]; humans) is listed as 2.5 h and the Absorption and clearance ([4]; oral dose of 600 mg in humans) is listed as “rapidly absorbed and then rapidly cleared”.
